Laboratory results reported in ChEMBL document CHEMBL2021812, “Aryltriflates as a Neglected Moiety in Medicinal Chemistry: A Case Study from a Lead Optimization of CXCL8 Inhibitors” (ACS Med Chem Lett, 2011).
Activity calls are given as the source filed them. No cut-off for these calls is given here.

Columns and labels:
[1] = target: T1, C-X-C chemokine receptor type 2 (Homo sapiens) (UniProt P25025); assay: Inhibition of CXCR2 in human polymorphonucleate cells assessed as inhibition of CXCL1-induced chemotaxis at 10^-8 M incubated for 15 mins prior to CXCL1-induction measured after 45 mins
T1 sequence (whole entry): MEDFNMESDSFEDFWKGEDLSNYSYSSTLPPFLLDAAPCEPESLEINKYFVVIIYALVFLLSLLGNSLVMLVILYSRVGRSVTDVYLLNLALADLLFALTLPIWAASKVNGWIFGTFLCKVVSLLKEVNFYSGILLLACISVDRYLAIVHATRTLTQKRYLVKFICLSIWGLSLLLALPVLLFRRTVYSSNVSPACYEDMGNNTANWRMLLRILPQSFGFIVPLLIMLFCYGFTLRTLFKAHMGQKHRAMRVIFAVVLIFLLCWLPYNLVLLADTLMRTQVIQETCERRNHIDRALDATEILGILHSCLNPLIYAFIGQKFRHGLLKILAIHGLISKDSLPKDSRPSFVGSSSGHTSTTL

[2] = target: Interleukin-8 receptors, CXCR1/CXCR2 (Homo sapiens) (UniProt P25025+P25024); assay: Inhibition of CXCR1/2 in human polymorphonucleate cells assessed as inhibition of CXCL8-induced chemotaxis at 10^-8 M incubated for 15 mins prior to CXCL8-induction measured after 45 mins
[3] = Metabolic stability in rat liver microsomes assessed as compound remaining at 1 uM preincubated for 10 mins measured after 30 mins; assay type: ADME, Microsome; conditions: read-out: Stability
[4] = Elimination half life in Sprague-Dawley rat at 14 mg/kg, iv; assay type: ADME, organism-based; parameters: dose 14 mg/kg, route intravenous; conditions: in vivo, read-out: beta t1/2 (converted)
CYP2C19 = CYP2C19 (Homo sapiens, UniProt P33261); assay: Inhibition of CYP2C19 using DBF as substrate at 10 uM; assay type: ADME; conditions: probe DBF
CYP2C9 = CYP2C9 (Homo sapiens, UniProt P11712); assay: Inhibition of CYP2C9 using 7MFC as substrate at 10 uM; assay type: ADME; conditions: probe 7MFC
CYP3A4 = CYP3A4 (Homo sapiens, UniProt P08684); assay: Inhibition of CYP3A4 using BFC as substrate at 10 uM; assay type: ADME; conditions: probe BFC
CYP2D6 = CYP2D6 (Homo sapiens, UniProt P10635); assay: Inhibition of CYP2D6 using AMMC as substrate at 10 uM; assay type: ADME; conditions: probe AMMC
CYP1A2 = target: T2, CYP1A2 (Homo sapiens, UniProt P05177); assay: Inhibition of CYP1A2 using CEC as substrate at 10 uM; assay type: ADME; conditions: probe CEC
T2 sequence (P05177 whole entry): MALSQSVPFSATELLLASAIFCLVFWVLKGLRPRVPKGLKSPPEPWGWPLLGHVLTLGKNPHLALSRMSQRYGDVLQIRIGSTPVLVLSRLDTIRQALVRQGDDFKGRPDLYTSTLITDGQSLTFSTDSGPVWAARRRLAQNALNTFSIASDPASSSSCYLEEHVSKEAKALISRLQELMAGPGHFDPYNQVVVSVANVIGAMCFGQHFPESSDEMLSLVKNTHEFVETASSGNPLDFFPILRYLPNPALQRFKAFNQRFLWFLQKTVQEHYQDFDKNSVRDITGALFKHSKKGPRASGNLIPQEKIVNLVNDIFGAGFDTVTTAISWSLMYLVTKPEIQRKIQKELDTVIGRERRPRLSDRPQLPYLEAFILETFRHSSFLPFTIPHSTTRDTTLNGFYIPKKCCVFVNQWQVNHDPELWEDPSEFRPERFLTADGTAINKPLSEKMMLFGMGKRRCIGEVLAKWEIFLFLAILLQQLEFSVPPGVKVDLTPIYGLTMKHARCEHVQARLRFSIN

Hepatocyte [5] = assay: Drug metabolism in rat hepatocytes assessed as (S)-2-(4-(trifluoromethylsulfonyloxy)phenyl)propanoic acid level at 10 uM after 60 mins; assay type: ADME, cell-based; conditions: 1 h
Hepatocyte [6] = assay: Drug metabolism in rat hepatocytes assessed as (S)-2-(4-(trifluoromethylsulfonyloxy)phenyl)propanoic acid level at 10 uM after 30 mins; assay type: ADME, cell-based; conditions: 0.5 h
Hepatocyte [7] = assay: Drug metabolism in rat hepatocytes assessed as (S)-2-(4-(trifluoromethylsulfonyloxy)phenyl)propanoic acid level at 10 uM after 15 mins; assay type: ADME, cell-based; conditions: 0.25 h
Hepatocyte [8] = assay: Metabolic stability in rat hepatocytes assessed as compound remaining at 10 uM after 120 mins; assay type: ADME, cell-based; conditions: 2 h
Hepatocyte [9] = assay: Metabolic stability in rat hepatocytes assessed as compound remaining at 10 uM after 90 mins; assay type: ADME, cell-based; conditions: 1.5 h
Hepatocyte [10] = assay: Metabolic stability in rat hepatocytes assessed as compound remaining at 10 uM after 60 mins; assay type: ADME, cell-based; conditions: 1 h
Hepatocyte [11] = assay: Metabolic stability in rat hepatocytes assessed as compound remaining at 10 uM after 30 mins; assay type: ADME, cell-based; conditions: 0.5 h
Hepatocyte [12] = assay: Metabolic stability in rat hepatocytes assessed as compound remaining at 10 uM after 15 mins; assay type: ADME, cell-based; conditions: 0.25 h
Hepatocyte [13] = assay: Drug metabolism in human hepatocytes assessed as (S)-2-(4-(trifluoromethylsulfonyloxy)phenyl)propanoic acid level at 10 uM after 120 mins; assay type: ADME, cell-based; conditions: 2 h
Hepatocyte [14] = assay: Drug metabolism in human hepatocytes assessed as (S)-2-(4-(trifluoromethylsulfonyloxy)phenyl)propanoic acid level at 10 uM after 90 mins; assay type: ADME, cell-based; conditions: 1.5 h
Hepatocyte [15] = assay: Drug metabolism in human hepatocytes assessed as (S)-2-(4-(trifluoromethylsulfonyloxy)phenyl)propanoic acid level at 10 uM after 60 mins; assay type: ADME, cell-based; conditions: 1 h
Hepatocyte [16] = assay: Drug metabolism in human hepatocytes assessed as (S)-2-(4-(trifluoromethylsulfonyloxy)phenyl)propanoic acid level at 10 uM after 30 mins; assay type: ADME, cell-based; conditions: 0.5 h
Hepatocyte [17] = assay: Drug metabolism in human hepatocytes assessed as (S)-2-(4-(trifluoromethylsulfonyloxy)phenyl)propanoic acid level at 10 uM after 15 mins; assay type: ADME, cell-based; conditions: 0.25 h
Hepatocyte [18] = assay: Metabolic stability in human hepatocytes assessed as compound remaining at 10 uM after 120 mins; assay type: ADME, cell-based; conditions: 2 h
Hepatocyte [19] = assay: Metabolic stability in human hepatocytes assessed as compound remaining at 10 uM after 90 mins; assay type: ADME, cell-based; conditions: 1.5 h
Hepatocyte [20] = assay: Metabolic stability in human hepatocytes assessed as compound remaining at 10 uM after 60 mins; assay type: ADME, cell-based; conditions: 1 h
Hepatocyte [21] = assay: Metabolic stability in human hepatocytes assessed as compound remaining at 10 uM after 30 mins; assay type: ADME, cell-based; conditions: 0.5 h
[22] = Chemical stability of the compound assessed as compound remaining at pH 9 after 2 hrs; assay type: physicochemical; conditions: buffer, read-out: Stability
Hepatocyte [23] = assay: Metabolic stability in human hepatocytes assessed as compound remaining at 10 uM after 15 mins; assay type: ADME, cell-based; conditions: 0.25 h
[24] = Chemical stability of the compound assessed as compound remaining at pH 3.5 after 2 hrs; assay type: physicochemical; conditions: buffer, read-out: Stability
[25] = Chemical stability of the compound assessed as compound remaining at pH 7.4 after 2 hrs; assay type: physicochemical; conditions: buffer, read-out: Stability
[26] = Metabolic stability in rat plasma assessed as compound remaining at 1 uM after 1 hr; assay type: ADME, cell-free; conditions: read-out: Stability
[27] = Dissociation constant, pKa of the compound; assay type: physicochemical
Hepatocyte [28] = assay: Drug metabolism in rat hepatocytes assessed as (S)-2-(4-(trifluoromethylsulfonyloxy)phenyl)propanoic acid level at 10 uM after 120 mins; assay type: ADME, cell-based; conditions: 2 h
Hepatocyte [29] = assay: Drug metabolism in rat hepatocytes assessed as (S)-2-(4-(trifluoromethylsulfonyloxy)phenyl)propanoic acid level at 10 uM after 90 mins; assay type: ADME, cell-based; conditions: 1.5 h
[30] = Half life in iv dosed rat plasma; assay type: ADME, organism-based

Chain of CYP2C19 (P33261 whole entry): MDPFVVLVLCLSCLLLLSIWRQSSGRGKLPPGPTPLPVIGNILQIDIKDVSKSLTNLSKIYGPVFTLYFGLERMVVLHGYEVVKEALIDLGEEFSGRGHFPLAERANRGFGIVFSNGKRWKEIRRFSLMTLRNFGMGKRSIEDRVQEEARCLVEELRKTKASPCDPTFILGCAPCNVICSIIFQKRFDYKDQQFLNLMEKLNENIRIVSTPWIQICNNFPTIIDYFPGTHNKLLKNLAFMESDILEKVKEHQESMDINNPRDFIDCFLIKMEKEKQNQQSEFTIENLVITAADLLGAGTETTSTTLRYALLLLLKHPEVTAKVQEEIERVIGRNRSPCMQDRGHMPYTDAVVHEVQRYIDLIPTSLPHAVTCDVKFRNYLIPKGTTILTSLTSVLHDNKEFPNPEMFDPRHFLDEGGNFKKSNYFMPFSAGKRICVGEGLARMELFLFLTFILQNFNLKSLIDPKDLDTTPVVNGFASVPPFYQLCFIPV
Chain of CYP2C9 (P11712 whole entry): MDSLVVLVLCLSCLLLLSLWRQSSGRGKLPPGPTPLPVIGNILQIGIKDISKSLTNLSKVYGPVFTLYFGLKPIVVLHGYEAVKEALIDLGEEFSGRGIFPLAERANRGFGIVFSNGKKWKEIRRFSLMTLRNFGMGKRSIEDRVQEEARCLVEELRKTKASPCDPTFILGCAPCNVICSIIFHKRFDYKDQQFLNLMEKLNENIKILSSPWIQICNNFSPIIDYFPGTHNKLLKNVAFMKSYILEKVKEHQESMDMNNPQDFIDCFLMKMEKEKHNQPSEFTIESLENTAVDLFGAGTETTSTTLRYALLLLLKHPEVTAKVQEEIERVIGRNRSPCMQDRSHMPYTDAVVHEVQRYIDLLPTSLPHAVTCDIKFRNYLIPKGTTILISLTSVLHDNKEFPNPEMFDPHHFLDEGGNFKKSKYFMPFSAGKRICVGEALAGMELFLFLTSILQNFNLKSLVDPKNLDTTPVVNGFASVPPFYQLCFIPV
Chain of CYP2D6 (P10635 whole entry): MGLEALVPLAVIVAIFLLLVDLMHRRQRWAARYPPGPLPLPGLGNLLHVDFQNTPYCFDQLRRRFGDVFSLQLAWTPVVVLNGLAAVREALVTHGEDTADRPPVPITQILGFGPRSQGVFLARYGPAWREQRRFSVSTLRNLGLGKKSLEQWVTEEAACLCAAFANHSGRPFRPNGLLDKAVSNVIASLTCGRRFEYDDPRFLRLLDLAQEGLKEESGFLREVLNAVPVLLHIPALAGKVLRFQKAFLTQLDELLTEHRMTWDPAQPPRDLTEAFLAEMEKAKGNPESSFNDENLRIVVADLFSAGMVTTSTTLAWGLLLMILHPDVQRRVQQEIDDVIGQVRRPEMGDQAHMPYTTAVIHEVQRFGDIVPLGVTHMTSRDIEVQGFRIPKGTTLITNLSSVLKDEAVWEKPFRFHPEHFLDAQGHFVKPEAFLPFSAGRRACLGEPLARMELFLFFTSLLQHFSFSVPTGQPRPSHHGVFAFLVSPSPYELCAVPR
Chain of CYP3A4 (P08684 whole entry): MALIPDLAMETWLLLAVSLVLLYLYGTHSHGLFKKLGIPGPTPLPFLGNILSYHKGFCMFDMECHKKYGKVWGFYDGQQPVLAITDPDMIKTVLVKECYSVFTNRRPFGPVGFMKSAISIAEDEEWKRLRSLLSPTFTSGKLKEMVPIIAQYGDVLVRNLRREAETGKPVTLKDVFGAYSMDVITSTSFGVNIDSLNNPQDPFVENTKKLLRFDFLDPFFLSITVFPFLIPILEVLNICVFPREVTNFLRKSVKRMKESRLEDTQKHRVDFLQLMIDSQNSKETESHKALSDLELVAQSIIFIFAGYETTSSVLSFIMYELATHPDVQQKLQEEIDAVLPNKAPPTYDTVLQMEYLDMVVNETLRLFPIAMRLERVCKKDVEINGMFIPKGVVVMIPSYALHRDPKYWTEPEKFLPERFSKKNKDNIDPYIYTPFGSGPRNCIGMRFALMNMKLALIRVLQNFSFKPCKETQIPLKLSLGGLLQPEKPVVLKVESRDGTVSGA
Chain of Interleukin-8 receptors, CXCR1/CXCR2 (Homo sapiens) (P25024 whole entry, looked up, one chain of several): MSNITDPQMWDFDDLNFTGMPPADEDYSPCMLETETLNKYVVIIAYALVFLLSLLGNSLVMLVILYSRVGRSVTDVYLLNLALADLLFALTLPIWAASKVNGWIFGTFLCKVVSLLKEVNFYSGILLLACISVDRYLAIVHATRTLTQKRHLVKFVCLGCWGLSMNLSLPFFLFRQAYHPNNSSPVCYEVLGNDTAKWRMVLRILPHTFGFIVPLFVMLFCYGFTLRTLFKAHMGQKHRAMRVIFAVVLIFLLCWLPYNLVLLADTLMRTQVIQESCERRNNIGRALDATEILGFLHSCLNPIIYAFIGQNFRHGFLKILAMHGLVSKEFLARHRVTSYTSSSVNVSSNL

C[C@@H](C(=O)NOCC1CC1)c1ccc(OS(=O)(=O)C(F)(F)F)cc1 showed an inhibition [1] of 35% and an inhibition [2] of 40%.

For CC(C)NC(=O)[C@H](C)c1ccc(OS(=O)(=O)C(F)(F)F)cc1, the remaining at 0.5 h, 1 µM [3] was 75%, the inhibition [1] was 65% and the inhibition [2] was 58%.

Work on CC(C)Cc1ccc([C@@H](C)C(=O)NS(C)(=O)=O)cc1 [REPARIXIN] yielded an inhibition [1] of 22%, an inhibition [2] of 68% and a half-life [4] of 45 min.

Cc1csc(NC(=O)[C@H](C)c2ccc(OS(=O)(=O)C(F)(F)F)cc2)n1 gave an inhibition at 10 µM (CYP2C19) of 90%, an inhibition at 10 µM (CYP2C9) of 60% and an inhibition at 10 µM (CYP3A4) of 60%. For the same compound, the inhibition at 10 µM (CYP2D6) was less than 5%, the inhibition at 10 µM (CYP1A2) was 16% and the inhibition [1] was 50%. For the same compound, the inhibition [2] was 58%.

With C[C@@H](C(=O)Nc1nccs1)c1ccc(OS(=O)(=O)C(F)(F)F)cc1 the inhibition at 10 µM (CYP2C19) was 87%, the inhibition at 10 µM (CYP2C9) was 53% and the inhibition at 10 µM (CYP3A4) was 52%. For the same compound, the inhibition at 10 µM (CYP2D6) was 26%, the inhibition at 10 µM (CYP1A2) was 36% and the inhibition [1] was 55%. It also gave an inhibition [2] of 56%.

In the case of C[C@@H](C(N)=O)c1ccc(OS(=O)(=O)C(F)(F)F)cc1, the remaining at 0.5 h, 1 µM [3] is reported as 80%, the inhibition [1] is reported as 56% and the inhibition [2] is reported as 58%.

In the case of C[C@@H](C(=O)O)c1ccc(OS(=O)(=O)C(F)(F)F)cc1, the Drug metabolism (Hepatocyte [5]) is reported as 449 ng/mL, the Drug metabolism (Hepatocyte [6]) is reported as 210 ng/mL and the Drug metabolism (Hepatocyte [7]) is reported as 117 ng/mL. For the same compound, the Stability (Hepatocyte [8]) was 1946 ng/mL, the Stability (Hepatocyte [9]) was 2167 ng/mL and the Stability (Hepatocyte [10]) was 2287 ng/mL. The Stability (Hepatocyte [11]) was 2541 ng/mL, the Stability (Hepatocyte [12]) was 2839 ng/mL and the Drug metabolism (Hepatocyte [13]) was 330 ng/mL. The Drug metabolism (Hepatocyte [14]) was 260 ng/mL, the Drug metabolism (Hepatocyte [15]) was 240 ng/mL and the Drug metabolism (Hepatocyte [16]) was 84 ng/mL. For the same compound, the Drug metabolism (Hepatocyte [17]) was 21 ng/mL, the Stability (Hepatocyte [18]) was 2541 ng/mL and the Stability (Hepatocyte [19]) was 2620 ng/mL. It also gave a Stability (Hepatocyte [20]) of 2696 ng/mL, a Stability (Hepatocyte [21]) of 2844 ng/mL and a remaining at 2 h [22] of 30%. For the same compound, the Stability (Hepatocyte [23]) was 2932 ng/mL, the remaining at 2 h [24] was greater than 99% and the remaining at 2 h [25] was greater than 99%. The remaining at 1 h, 1 µM [26] was 100%, the inhibition at 10 µM (CYP2C19) was less than 5% and the inhibition at 10 µM (CYP2C9) was less than 5%. For the same compound, the inhibition at 10 µM (CYP3A4) was less than 5%, the inhibition at 10 µM (CYP2D6) was less than 5% and the inhibition at 10 µM (CYP1A2) was less than 5%. It also gave an inhibition [1] of 63%, an inhibition [2] of 62% and a pKa [27] of 4. For the same compound, the Drug metabolism (Hepatocyte [28]) was 870 ng/mL and the Drug metabolism (Hepatocyte [29]) was 664 ng/mL.

With C[C@@H](C(=O)Nc1nc(C(F)(F)F)cs1)c1ccc(OS(=O)(=O)C(F)(F)F)cc1 the inhibition at 10 µM (CYP2C19) was 94%, the inhibition at 10 µM (CYP2C9) was 73% and the inhibition at 10 µM (CYP3A4) was 52%. The inhibition at 10 µM (CYP2D6) was 56%, the inhibition at 10 µM (CYP1A2) was 14% and the inhibition [1] was 55%. The inhibition [2] was 64%.

C[C@@H](C(=O)Nc1ncco1)c1ccc(OS(=O)(=O)C(F)(F)F)cc1 gave an inhibition at 10 µM (CYP2C19) of 90%, an inhibition at 10 µM (CYP2C9) of 70% and an inhibition at 10 µM (CYP3A4) of 44%. It also gave an inhibition at 10 µM (CYP2D6) of less than 5%, an inhibition at 10 µM (CYP1A2) of 15% and an inhibition [1] of 46%. It also gave an inhibition [2] of 47%.

With C[C@H](C(=O)O)c1ccc(OS(=O)(=O)C(F)(F)F)cc1 the inhibition [1] was “inactive” and the inhibition [2] was “inactive”.

Compound C[C@@H](C(=O)N(C)O)c1ccc(OS(=O)(=O)C(F)(F)F)cc1 has a remaining at 2 h [25] greater than 98%, a half-life [30] of less than 60 min and a remaining at 0.5 h, 1 µM [3] of 75%. For the same compound, the remaining at 1 h, 1 µM [26] was 96%, the inhibition [1] was 49% and the inhibition [2] was 47%.
